The results in this text go back to US7384933B2, “Derivatives of 2-hydroxytetrahydrofuran and their use as medicaments” (priority 2003, dated 2008).

By melting point is commonly meant the temperature of the solid-liquid transition.

For `CC(C)CN(CC(=O)N[C@H]1CCOC1O)C(=O)CNC(=O)COc1ccc2c(c1)Nc1ccccc1S2` (stereo partly shown), the melting point was in the range of 122 to 124 °C.
Under `COC1OCC[C@@H]1NC(=O)[C@H](CC(C)C)NC(=O)[C@H](CC(C)C)NC(=O)c1ccc2c(c1)Nc1ccccc1S2` (stereo partly shown) stands 180 to 180.5 °C; under `CC(C)C[C@H](NC(=O)[C@@H](NC(=O)COc1ccc2c(c1)Nc1ccccc1S2)c1ccccc1)C(=O)N[C@H]1CCOC1O` (stereo partly drawn) [Example 52, N^1-[(3S)-2-hydroxytetrahydrofuran-3-yl]-N^2-((2S)-2-{[(10H-phenothiazin-2-yloxy)acetyl]amino}-2-phenylethanoyl)-L-leucinamide], 137 to 138 °C; under `COC1OCC[C@@H]1NC(=O)[C@H](CC(C)C)NC(=O)CN(C)C(=O)COc1ccc2c(c1)Nc1ccccc1S2` (stereo partly shown), 92 to 95 °C.
